Several values for one entry are separate records, joined by “and”; a condition that tells them apart may be missing. Identical values can stand only once. Inconclusive results and toxic doses are left out. The calls were made as follows: active = survival T/C of 150% or more; inactive = T/C below 125% in these data.
System: CD2F1 mice, L1210 leukemia ip, survival T/C
Assay: NCI In Vivo Anticancer Drug Screen. Data for tumor model L1210 Leukemia (intraperitoneal) in CD2F1 (CDF1) mice
Settings: higher = longer survival
Summary of the method: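 Tumor-bearing mice (transplanted tumor) were split into treated and vehicle control groups, and the measured endpoint of each treated group was divided by that of its vehicle controls.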

[1] = endpoint: mean survival time, dose: 100.0 mg/kg/injection, schedule: Q01DX009 (ip), vehicle: saline with Tween-80
[2] = endpoint: mean survival time, dose: 100.0 mg/kg/injection, schedule: Q04DX003 (ip), vehicle: saline with Tween-80
[3] = endpoint: mean survival time, dose: 200.0 mg/kg/injection, schedule: Q04DX003 (ip), vehicle: saline with Tween-80
[4] = endpoint: mean survival time, dose: 400.0 mg/kg/injection, schedule: Q04DX003 (ip), vehicle: saline with Tween-80
[5] = endpoint: mean survival time, dose: 100.0 mg/kg/injection, schedule: Q01DX001 (ip), vehicle: saline
[6] = endpoint: mean survival time, dose: 200.0 mg/kg/injection, schedule: Q01DX001 (ip), vehicle: saline
[7] = endpoint: mean survival time, dose: 400.0 mg/kg/injection, schedule: Q01DX001 (ip), vehicle: saline
[8] = endpoint: mean survival time, dose: 12.5 mg/kg/injection, schedule: Q04DX002 (ip), vehicle: saline with Tween-80
[9] = endpoint: mean survival time, dose: 50.0 mg/kg/injection, schedule: Q04DX002 (ip), vehicle: saline with Tween-80

Measured: T/C

COC(=O)/C=C/CNC(C)C
inactive: endpoint: mean survival time, dose: 12.5 mg/kg/injection, schedule: Q01DX009 (ip), vehicle: water 93 % of control | endpoint: mean survival time, dose: 25.0 mg/kg/injection, schedule: Q01DX009 (ip), vehicle: water 95 % of control | endpoint: mean survival time, dose: 50.0 mg/kg/injection, schedule: Q01DX009 (ip), vehicle: water 96 % of control | endpoint: mean survival time, dose: 100.0 mg/kg/injection, schedule: Q01DX009 (ip), vehicle: water 96 % of control | endpoint: mean survival time, dose: 200.0 mg/kg/injection, schedule: Q01DX009 (ip), vehicle: water 101 % of control

[O-][n+]1c2c(cc3ccccc31)Cc1ccccc1-2
inactive: endpoint: mean survival time, dose: 100.0 mg/kg/injection, schedule: Q04DX003 (ip), vehicle: Klucel (hydroxypropylcellulose) (HPC) 98 % of control | endpoint: mean survival time, dose: 200.0 mg/kg/injection, schedule: Q04DX003 (ip), vehicle: Klucel (hydroxypropylcellulose) (HPC) 96 % of control | endpoint: mean survival time, dose: 400.0 mg/kg/injection, schedule: Q04DX003 (ip), vehicle: Klucel (hydroxypropylcellulose) (HPC) 93 % of control

C/C(=N\Nc1ccc([N+](=O)[O-])cc1[N+](=O)[O-])c1ccc[nH]1
inactive: [1] 87 % of control | [2] 95 % of control | endpoint: mean survival time, dose: 200.0 mg/kg/injection, schedule: Q01DX009 (ip), vehicle: saline with Tween-80 97 % of control | [3] 95 % of control | endpoint: mean survival time, dose: 400.0 mg/kg/injection, schedule: Q01DX009 (ip), vehicle: saline with Tween-80 93 % of control | [4] 91 % of control

COc1cc2cc3c4cc(OC)c(OC)cc4cc[n+]3c(C)c2cc1OC
inactive: [5] 120 % of control | endpoint: mean survival time, dose: 132.0 mg/kg/injection, schedule: Q04DX003 (ip), vehicle: saline sonified 122 % of control | [6] 122 % of control | endpoint: mean survival time, dose: 200.0 mg/kg/injection, schedule: Q04DX003 (ip), vehicle: saline sonified 114 % of control | endpoint: mean survival time, dose: 200.0 mg/kg/injection, schedule: Q04DX003 (ip), vehicle: saline 122 % of control | endpoint: mean survival time, dose: 300.0 mg/kg/injection, schedule: Q04DX003 (ip), vehicle: saline sonified 123 % of control | [7] 109 % of control | endpoint: mean survival time, dose: 400.0 mg/kg/injection, schedule: Q04DX003 (ip), vehicle: saline 116 % of control

N/C(=N/N=C/c1cc(Br)cc(Br)c1O)NO
inactive: endpoint: median survival time, dose: 12.5 mg/kg/injection, schedule: Q01DX005 (ip), vehicle: suspension in saline 105 % of control | endpoint: median survival time, dose: 25.0 mg/kg/injection, schedule: Q01DX005 (ip), vehicle: suspension in saline 100 % of control | endpoint: median survival time, dose: 50.0 mg/kg/injection, schedule: Q01DX005 (ip), vehicle: suspension in saline 105 % of control | endpoint: median survival time, dose: 100.0 mg/kg/injection, schedule: Q01DX005 (ip), vehicle: suspension in saline 116 % of control

OCc1cc2ccccc2cc1Br
inactive: endpoint: mean survival time, dose: 50.0 mg/kg/injection, schedule: Q01DX001 (ip), vehicle: saline 89 % of control | [5] 93 % of control | [6] 95 % of control | [7] 100 % of control

CCCC(=O)OCc1ccc(Cl)c(Cl)c1
inactive: endpoint: mean survival time, dose: 50.0 mg/kg/injection, schedule: Q01DX009 (ip), vehicle: saline with Tween-80 97 % of control | [1] 92 % of control | [2] 91 % of control | [3] 87 % of control

CCOC(=O)c1ccc(NC(=O)Nc2cc(Cl)c(Cl)cc2C)cc1
inactive: endpoint: mean survival time, dose: 3.13 mg/kg/injection, schedule: Q01DX001 (ip), vehicle: saline with Tween-80 93 % of control | endpoint: mean survival time, dose: 3.13 mg/kg/injection, schedule: Q04DX003 (ip), vehicle: saline with Tween-80 90 % of control | endpoint: mean survival time, dose: 6.25 mg/kg/injection, schedule: Q01DX001 (ip), vehicle: saline with Tween-80 92 % of control | endpoint: mean survival time, dose: 6.25 mg/kg/injection, schedule: Q01DX009 (ip), vehicle: saline with Tween-80 86 % of control and 89 % of control | endpoint: mean survival time, dose: 6.25 mg/kg/injection, schedule: Q04DX002 (ip), vehicle: saline with Tween-80 91 % of control and 97 % of control | endpoint: mean survival time, dose: 6.25 mg/kg/injection, schedule: Q04DX003 (ip), vehicle: saline with Tween-80 89 % of control | endpoint: mean survival time, dose: 12.5 mg/kg/injection, schedule: Q01DX001 (ip), vehicle: saline with Tween-80 93 % of control | endpoint: mean survival time, dose: 12.5 mg/kg/injection, schedule: Q01DX009 (ip), vehicle: saline with Tween-80 86 % of control | [8] 91 % of control | endpoint: mean survival time, dose: 25.0 mg/kg/injection, schedule: Q04DX003 (ip), vehicle: saline with Tween-80 90 % of control | [9] 91 % of control | [1] 88 % of control | endpoint: mean survival time, dose: 400.0 mg/kg/injection, schedule: Q04DX002 (ip), vehicle: saline with Tween-80 88 % of control

Nc1ccc(NC(=O)Nc2ccc(N)cc2)cc1
inactive: endpoint: mean survival time, dose: 3.0 mg/kg/injection, schedule: Q01DX009 (ip), vehicle: saline sonified 96 % of control | endpoint: mean survival time, dose: 6.0 mg/kg/injection, schedule: Q01DX009 (ip), vehicle: saline sonified 94 % of control | endpoint: mean survival time, dose: 12.0 mg/kg/injection, schedule: Q01DX009 (ip), vehicle: saline sonified 96 % of control | endpoint: mean survival time, dose: 12.5 mg/kg/injection, schedule: Q04DX003 (ip), vehicle: saline with Tween-80 104 % of control

Nc1cc(C(=O)O)c(O)c(Cl)c1O
inactive: [8] 93 % of control | endpoint: mean survival time, dose: 25.0 mg/kg/injection, schedule: Q04DX002 (ip), vehicle: saline with Tween-80 90 % of control | [9] 97 % of control

Cc1ncc([N+](=O)[O-])n1CCO
inactive: endpoint: mean survival time, dose: 37.5 mg/kg/injection, schedule: Q01DX009 (ip), vehicle: Klucel (hydroxypropylcellulose) (HPC) 109 % of control | endpoint: mean survival time, dose: 37.5 mg/kg/injection, schedule: Q04DX003 (ip), vehicle: Klucel (hydroxypropylcellulose) (HPC) 98 % of control | endpoint: mean survival time, dose: 75.0 mg/kg/injection, schedule: Q01DX009 (ip), vehicle: Klucel (hydroxypropylcellulose) (HPC) 104 % of control | endpoint: mean survival time, dose: 75.0 mg/kg/injection, schedule: Q04DX003 (ip), vehicle: Klucel (hydroxypropylcellulose) (HPC) 103 % of control | endpoint: mean survival time, dose: 150.0 mg/kg/injection, schedule: Q01DX009 (ip), vehicle: Klucel (hydroxypropylcellulose) (HPC) 103 % of control | endpoint: mean survival time, dose: 150.0 mg/kg/injection, schedule: Q04DX003 (ip), vehicle: Klucel (hydroxypropylcellulose) (HPC) 104 % of control | endpoint: mean survival time, dose: 300.0 mg/kg/injection, schedule: Q01DX009 (ip), vehicle: Klucel (hydroxypropylcellulose) (HPC) 107 % of control | endpoint: mean survival time, dose: 300.0 mg/kg/injection, schedule: Q04DX003 (ip), vehicle: Klucel (hydroxypropylcellulose) (HPC) 97 % of control | endpoint: mean survival time, dose: 600.0 mg/kg/injection, schedule: Q01DX009 (ip), vehicle: Klucel (hydroxypropylcellulose) (HPC) 92 % of control | endpoint: mean survival time, dose: 600.0 mg/kg/injection, schedule: Q04DX003 (ip), vehicle: Klucel (hydroxypropylcellulose) (HPC) 98 % of control

CCCC(C)OC(=O)c1ccc([N+](=O)[O-])cc1 (centres undefined)
inactive: [5] 100 % of control | [6] 110 % of control | [7] 93 % of control

O=C1OCC/C1=C1\CCCO1
inactive: [2] 106 % of control | [3] 101 % of control | [4] 95 % of control

COC(=O)C12C=CC=CC3C(C=C1)NC(=O)C32 (centres undefined)
inactive: endpoint: median survival time, dose: 25.0 mg/kg/injection, schedule: Q04DX002 (ip), vehicle: saline with Tween-80 122 % of control | endpoint: median survival time, dose: 50.0 mg/kg/injection, schedule: Q04DX002 (ip), vehicle: saline with Tween-80 100 % of control | endpoint: median survival time, dose: 100.0 mg/kg/injection, schedule: Q04DX002 (ip), vehicle: saline with Tween-80 100 % of control | endpoint: median survival time, dose: 200.0 mg/kg/injection, schedule: Q04DX002 (ip), vehicle: saline with Tween-80 111 % of control

C#CCOCC1CO1 (centres undefined)
inactive: endpoint: mean survival time, dose: 75.0 mg/kg/injection, schedule: Q01DX001 (ip), vehicle: saline 95 % of control | endpoint: mean survival time, dose: 150.0 mg/kg/injection, schedule: Q01DX001 (ip), vehicle: saline 87 % of control

c1ccc2c(c1)[nH]c1nc3ncncc3nc12
inactive: endpoint: mean survival time, dose: 100.0 mg/kg/injection, schedule: Q01DX009 (ip), vehicle: saline 98 % of control | endpoint: mean survival time, dose: 200.0 mg/kg/injection, schedule: Q01DX009 (ip), vehicle: saline 104 % of control | endpoint: mean survival time, dose: 400.0 mg/kg/injection, schedule: Q01DX009 (ip), vehicle: saline 112 % of control

From PubChem BioAssay AID256 (DTP/NCI, 2004)
